Measured values from publication PMC9067978, “Design, synthesis, and molecular docking studies of novel pomalidomide-based PROTACs as potential anti-cancer agents targeting EGFR^WT and EGFR^T790M” (Journal of Enzyme Inhibition and Medicinal Chemistry, 2022).

Columns and labels:
EGFR = target: T1, EGFR (Homo sapiens, UniProt P00533); test: Western blotting, EGFR degradation in A549 cells; assay type: cell-based
T1 construct: EGFR degradation activities of compounds in A549 cells; endogenous in cells; host or cells: A549
Description: Following this, the target compounds 15–21 tethering various E3 ligases ligand were chosen as representative PROTACs for further degradation study based on temporal data.
Figure 4. (A) EGFR degradation activities of compounds in A549 cells. Cells were treated for 48 h with concentration of 0.1 and 1 µM. (B) Effects of concentration-dependent EGFR degradation by compounds 15–21 in A549 cell lines. Cells were treated for 48 h with a concentration from 1 nM to 10 µM. EGFR protein was examined by Western blotting analysis and EGFR degradation rate was quantified by densitometry and normalised to the corresponding density of β-actin protein (n ¼ 3). TEXT PRINTED IN THE PICTURE: (B) Comp 15: DC50 = 43.4 nm | (B) Comp 16: DC50= 32.9 nm DOUBTS OF THE COPYIST ABOUT THIS PICTURE: Comp 15, DC50: 43.4 is small blurred print; the 3 could be 8 and the digits are not certain / Comp 16, DC50: 32.9 is small blurred print; the 3 could be 8 and the 9 could be 8 or 0
We set nine concentration gradients ranging from […] to 10 µM to determine the degradation activity of all tested compounds and calculated the DC50 (concentration that caused deletion of 50% of EGFR) values.
At a concentration of 100 nM, the time-dependent degradation activities of compounds 15–21 were also examined (Figure 5(A)).
Figure 5. (A) EGFR time-dependent degradation by compound 16 in A549 cell lines. Cells were treated with100 nM of 15–21 for indicated time points. Western blotting was used to evaluate EGFR protein, and densitometry was used to measure EGFR degradation, which was adjusted to the density of β-actin protein (n ¼2). (B) Compounds 15 and 16 have EGFR degradation and phosphorylation inhibitory action in A549 cells. The cells were exposed to concentrations of 0.1, 0.3, and 1 µM. Erlotinib were utilised for comparison. TEXT PRINTED IN THE PICTURE: (A) Comp 15: Dmax = 85 % @ 96 h; Degradation: 9 (4 h; 100 nM); Degradation: 22 (8 h; 100 nM); Degradation: 42 (12 h; 100 nM); Degradation: 83 (24 h; 100 nM); Degradation: 84 (36 h; 100 nM); Degradation: 82 (48 h; 100 nM); Degradation: 82 (72 h; 100 nM); Degradation: 85 (96 h; 100 nM) | (A) Comp 16: Dmax = 96 % @72 h; Degradation: 32 (4 h; 100 nM); Degradation: 43 (8 h; 100 nM); Degradation: 67 (12 h; 100 nM); Degradation: 69 (24 h; 100 nM); Degradation: 78 (36 h; 100 nM); Degradation: 85 (48 h; 100 nM); Degradation: 96 (72 h; 100 nM); Degradation: 94 (96 h; 100 nM) DOUBTS OF THE COPYIST ABOUT THIS PICTURE: Comp 15, Dmax: print is blurred, 85 % @ 96 h is the best reading (85 or 86) / Comp 16, Dmax: print is small and blurred, 96 % @72 h is the best reading (96 or 95; the % sign is unclear) / Comp 15, Degradation row: print is blurred, 83/84/82/82/85 are best readings (3, 5, 8 are hard to tell apart) / Comp 16, Degradation row: print is blurred, 67/69/78/85/96/94 are best readings (5, 6, 8, 9 are hard to tell apart) / The Degradation rows are printed under the blot lanes with no unit. The value 0 under the 0.1 % DMSO control lane was not assigned to any compound.
Cells were seeded in 6-well plates at 1 × 10^6 per well, incubated at 37 °C with 5% CO2 for 24 h before drug exposure. Cells were treated with different concentrations of synthesised compounds for […], then collected and suspended in lysis buffer (Beyotime) and centrifuged for 20 min at 12000 rpm, later removed the insoluble material. […] The results were detected by an enhanced chemiluminescence system (Mill-pore). […]

MCF-7 = test: DNA-flow cytometric cell cycle analysis, MCF-7; assay type: cell-based, human; conditions: 3.92 µM, 24 hours
Description: Then, the influence of compound 16 on the cell cycle profile was then investigated.
The cells that had been tested were then trypsinized and washed in sterilised phosphate buffer saline (PBS). The collected cells were fixed with cold ethanol (100%, 1.5 ml). According to the manufacturer’s instructions, a Cycle TESTTM PLUS DNA Reagent Kit was used to dye the cells (BD Biosciences, San Jose, CA). A flow cytometer was used to assess cell-cycle distribution.[52]

T1 sequence (P00533 25-1210): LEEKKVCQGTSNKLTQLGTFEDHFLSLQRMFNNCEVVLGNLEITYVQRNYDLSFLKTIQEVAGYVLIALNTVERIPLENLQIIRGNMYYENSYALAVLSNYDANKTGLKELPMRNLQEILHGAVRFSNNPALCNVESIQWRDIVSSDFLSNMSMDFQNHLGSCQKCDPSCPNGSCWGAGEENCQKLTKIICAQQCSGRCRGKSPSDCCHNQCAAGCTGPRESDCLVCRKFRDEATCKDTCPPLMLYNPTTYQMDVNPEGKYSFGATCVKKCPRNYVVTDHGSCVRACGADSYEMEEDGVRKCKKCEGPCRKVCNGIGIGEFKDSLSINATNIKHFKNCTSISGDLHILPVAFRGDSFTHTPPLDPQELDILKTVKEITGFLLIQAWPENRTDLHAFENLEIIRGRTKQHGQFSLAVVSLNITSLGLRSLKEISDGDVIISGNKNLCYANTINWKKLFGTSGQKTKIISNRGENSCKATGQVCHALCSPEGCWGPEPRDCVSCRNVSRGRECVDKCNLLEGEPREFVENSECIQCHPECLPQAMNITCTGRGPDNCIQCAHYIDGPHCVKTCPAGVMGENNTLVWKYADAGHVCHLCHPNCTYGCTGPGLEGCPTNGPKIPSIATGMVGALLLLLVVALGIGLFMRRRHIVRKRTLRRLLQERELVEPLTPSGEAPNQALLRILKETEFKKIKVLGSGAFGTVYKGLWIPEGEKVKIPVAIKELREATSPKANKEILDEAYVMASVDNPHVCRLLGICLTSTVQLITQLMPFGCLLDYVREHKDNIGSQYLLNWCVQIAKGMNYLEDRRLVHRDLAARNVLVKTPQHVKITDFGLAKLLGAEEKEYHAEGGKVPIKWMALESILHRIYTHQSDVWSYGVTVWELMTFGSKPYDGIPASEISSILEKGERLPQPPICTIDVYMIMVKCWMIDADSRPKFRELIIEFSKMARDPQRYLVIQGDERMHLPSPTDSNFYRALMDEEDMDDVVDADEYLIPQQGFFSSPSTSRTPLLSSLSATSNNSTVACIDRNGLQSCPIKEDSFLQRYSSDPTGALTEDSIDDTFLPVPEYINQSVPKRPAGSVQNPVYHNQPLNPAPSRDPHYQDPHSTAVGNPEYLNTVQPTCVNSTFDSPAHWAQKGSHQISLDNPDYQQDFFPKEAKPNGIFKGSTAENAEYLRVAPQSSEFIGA

Cn1c(=O)c(C(=O)NNCCOCCOCC(=O)Nc2cccc3c2C(=O)N(C2CCC(=O)NC2=O)C3=O)nc2ccccc21 (centres unmarked) [Compound 16, N-(2-(2,6-dioxopiperidin-3-yl)-1,3-dioxoisoindolin-4-yl)-2-(2-(2-(2-(4-methyl-3-oxo-3,4-dihydroquinoxaline-2-carbonyl) hydrazinyl)ethoxy)ethoxy) acetamide]
Dmax at 0.1 µM (EGFR; A549, A549 cells, 100 nM, time course, reached at 96 h (15) and 72 h (16), read-out: Dmax, maximum EGFR degradation rate): 96% | DC50 (EGFR; A549 cells, 48 h, Western blotting densitometry, read-out: DC50 (concentration that caused deletion of 50% of EGFR)): 0.0329 µM | concentration-dependent EGFR degradation, in words (EGFR; A549 cells, 48 h, concentration series up to 10 µM): hook effect | fold increase of cells in G2-M phase vs control, MCF-7 (MCF-7): 1.53 fold | fold increase of cells in pre-G1 phase vs control, MCF-7 (MCF-7): 4.39 fold
